The text below walks through data of patent US20060063794A1, “Method of attenuating graft rejection” (Fujisawa Pharmaceutical Co., Ltd., priority 2004, published 2006).

This experiment has as its system human kidney transplant recipients. As to the kind of experiment: Multi-center, randomized, double-blind trial of FK778/Tacrolimus/steroids: acute rejection and graft survival. The class given is in vivo. The method, then:
Patients were randomised to a 3-month treatment regimen with high-level FK778/Tacrolimus/corticosteroid (arm 1), low-level FK778/Tacrolimus/corticosteroid (arm 2), or placebo/Tacrolimus/corticosteroid (arm 3). FK778 and placebo were administered in a double-blind manner. Patients in arm 1 received two doses of 600 mg/day and continued on 150 mg/day. Patients in arm 2 received one dose of 600 mg/day and continued on 75 mg/day. Subsequent doses were adjusted to maintain trough levels of FK778 in the range of 100-200 μg/mL (arm 1) and 10-100 μg/mL (arm 2). Trough levels of FK778 were centrally determined. Doses of FK778 were adjusted according to the recommendations of an independent panel.
Treatment of adults of both genders was studied in a multi-center, randomized, double-blind trial. Three groups were studied. Group H was treated with high dose FK778/tarcolimus/steroids; Group L was treated with low dose FK778/tarcolimus/steroids; and Group P was treated with placebo/Tacrolimus/steroids. Tacrolimus was given as an initial dose of 0.2 mg/kg per os divided into two equal doses, one pre-operatively and one post-operatively. Subsequent doses were adjusted to reach target Tacrolimus whole blood trough concentrations of 10-20 ng/mL on Days 0-30, and 5-15 ng/mL on Days 31-84. Methylprednisolone was perioperatively administered at 1000 mg i.v. or less and 125 mg on Day 1. A prednisolone equivalent was given orally at 20 mg from Day 2-14, at 15 mg on Day 15-28, at 10 mg from Day 29-42 and 5 mg from Day 43-84. Oral tablets of FK778/placebo were administered in a double-blind manner.
Patients in group H received loading doses of 600 mg/day on Day 1 and 2 and continued on 150 mg/day. This was the maximum permitted daily dose of FK778. Patients in group L received 600 mg/day only on Day 1 and continued on 75 mg/day. Dose adaptations were to be performed from day 7 onwards. Subsequent doses were adjusted to maintain plasma trough levels of FK778 in the target ranges of 100-200 μg/mL (H) and 10-100 μg/mL (L).
All visits and time points were calculated from the day of reperfusion (Day 0). […] Periods of dialysis dependence and hospitalization were recorded, as were details of medication. In case of a clinically apparent rejection, a renal graft biopsy was taken and classified by the local histopathologist according to the Banff 97 criteria (Racusen et al., Kidney Int. 55: 713-723 (1999)). Type I, II and III acute rejections (AR) were reported. AR was classified as corticosteroid-sensitive or corticosteroid-resistant. An independent histopathologist who was blinded to treatment and local biopsy readings performed the central biopsy review.
The primary efficacy endpoint was the incidence of AR proven by local biopsy over the first 12 weeks. […] For being defined as a patient whose target level was achieved, the average trough level of this patient had to be within the target range at week 2. On a continuous basis safety was assessed by patient and graft survival, adverse event monitoring, routine laboratory evaluations and vital signs. Treatment emergent adverse events were coded according to the MedDRA dictionary (version 5.0).
In this example, all tests were performed one-sided and pair-wise without alpha-adjustment for multiple testing using a 10% significance level. Statistical power was calculated for the analysis of the primary endpoint. A difference of 20% between groups in the incidence of biopsy-proven AR was considered a clinically meaningful difference. A reasonable expectation for the estimated rate of patients experiencing biopsy-proven AR in the Tacrolimus/steroid arm was 35%. Allowing for a dropout rate of 11%, it was estimated that with the outlined statistical methods the sample size of 45 evaluable patients per treatment arm was large enough to achieve a power of ≧80%. Thus, it was planned to enroll 135 patients using a 1:1:1 randomisation. The primary endpoint was analysed using chi-squared tests. […]

Where [1] appears, read: All patients, High level FK778 (group H).
[2] abbreviates: All patients, Low level FK778 (group L).

On to `C#CCC/C(O)=C(\C#N)C(=O)Nc1ccc(C(F)(F)F)cc1` [FK778, (2Z)-2-cyano-3-hydroxy-N-[4-(trifluromethyl)phenyl]-2-hepten-6-ynamide], for which the “Corticosteroid-resistant AR (%)” value under setting [1] is given as “(8.2) %” and the “Corticosteroid-resistant AR (%)” value under setting [2] is on record as “(11.1) %”. In addition, the “Corticosteroid-resistant AR, number of patients” value was determined as 4 under setting [1] and 6 under setting [2]. For the same compound, the “Corticosteroid-sensitive AR (%)” value is, setting by setting: under setting [1], “(22.4) %”; under setting [2], “(14.8) %”. Also, the “Corticosteroid-sensitive AR, number of patients” value is, setting by setting: under setting [1], 11; under setting [2], 8. Besides, the “Overall AR proven by central biopsy, number of patients” value runs as follows: (All patients, High level FK778 (group H), N=49) 13; (All patients, Low level FK778 (group L), N=54) 14; (Patients reaching target levels within second week, High level FK778 (subgroup H), N=26) 2; (Patients reaching target levels within second week, Low level FK778 (subgroup L), N=48) 13. The “Overall AR proven by local biopsy, number of patients” value (All patients, High level FK778 (group H), N=49, first 12 weeks) is on record as 14 and the “Overall AR proven by local biopsy, number of patients” value (All patients, Low level FK778 (group L), N=54, first 12 weeks) was 14. Moreover, the “Kaplan-Meier estimated rate of patients free from centrally determined biopsy proven acute rejection, higher compared with placebo” value (after 12 weeks, high and low level FK778) was 12.1 % percentage points. Also, the “Graft survival at month 4” value reads like this: (arm 1, high-level FK778/Tacrolimus/corticosteroid, n=49) 89.7%; (arm 2, low-level FK778/Tacrolimus/corticosteroid, n=54) 88.8%. The “Difference in incidence of AR by central biopsy review versus placebo” value by setting is: (group H vs. P) 12.6%; (group L vs. P) 13.2%. The “Difference in incidence of AR proven by local biopsy versus placebo” value came to 6.2% (group H vs. P) and 8.9% (group L vs. P). Besides, the “Graft survival estimate (Kaplan-Meier method) at Week 16” value (group H, high level FK778) is reported as 89.7% and the “Graft survival estimate (Kaplan-Meier method) at Week 16” value (group L, low level FK778) is on record as 88.8%.
